How the values were obtained:
Experiment in all cases: Antimicrobial test, broth dilution method (MIC)
Assay type in all cases: cell-based
Settings in all cases: single compounds of Comparative Examples
A. niger = test system: A. niger
Protocol: (§1) The antimicrobial activity of the test solution was measured using a broth dilution method. The concentration of the test solution that was treated was diluted from the highest concentration of 5% to the lowest concentration of 0.0001%. The test solution was cultured in the presence of the strain and then the turbidity of the tube was determined. […] After the primary test described as above, the concentration of the test solution that was treated was further subdivided and a secondary test was conducted to obtain an accurate minimum inhibitory concentration (MIC).
(§2) Test strains E. coli, S. aureus, and P. aeruginosa were inoculated into tryptic soy broth and incubated at 35±2° C. for 16 to 24 hours. C. albicans was inoculated into Sabouraud dextrose broth and cultured at 35° C. for 24 hours. A. niger was seeded on potato dextrose agar and cultured at (25±1°) C for 7 days, sterile physiological saline was dispensed into a solid medium on which the bacteria grew, and spores were removed using a spreader and then diluted in sterile physiological saline.
(§3) A liquid medium was put into the tube and the concentration of the test solution that was treated was diluted from the highest concentration of 5% to the lowest concentration of 0.0001%. The liquid media used for E. coli, S. aureus, and P. aeruginosa (bacteria) were tryptic soy broth, and the liquid media used for C. albicans, and A. niger (fungi) were Sabouraud dextrose broth.
(§4) E. coli, S. aureus, and P. aeruginosa of the strains were inoculated at a concentration of 1×10^5 CFU/mL in the test tube. The tubes treated with the test solution were incubated at 35±2° C. for 16 to 24 hours. C. albicans and A. niger were inoculated at a concentration of 1×10^4 CFU/mL in the test tube. After treatment with the test solution was completed, C. albicans was cultured at 35° C. for 24 to 48 hours and A. niger was cultured at 25° C. for 46 to 50 hours. A medium tube, to which the bacterial solution was not added, was used as a negative control, and a tube containing the medium inoculated with only the bacterial solution without the test solution was used as a growth control. In addition, in order to determine the antimicrobial activity of dipropylene glycol itself used as a solvent, the MIC of the test bacteria for the solvent was measured under the same conditions as in the sample.

S. aureus = test system: S. aureus
Protocol: as §1, §2, §3, §4

P. aeruginosa = test system: P. aeruginosa
Protocol: as §1, §2, §3, §4

C. albicans = test system: C. albicans
Protocol: as §1, §2, §3, §4

E. coli = test system: E. coli
Protocol: as §1, §2, §3, §4

Row | Compound | minimum inhibitory concentration (MIC), A. niger (A. niger) [%] | minimum inhibitory concentration (MIC), S. Aureus (S. aureus) [%] | minimum inhibitory concentration (MIC), P. Aeruginosa (P. aeruginosa) [%] | minimum inhibitory concentration (MIC), C. albicans (C. albicans) [%] | minimum inhibitory concentration (MIC), E. coli (E. coli) [%]
1 | O=C/C=C/c1ccccc1 [Comparative Example 9, Cinnamaldehyde] | 0.03 | 0.03 | 0.1 | 0.02 | 0.05
2 | COc1ccccc1/C=C/C=O [Comparative Example 10, 2-methoxycinnamaldehyde] | 0.005 | 0.02 | 0.4 | 0.005 | 0.02
3 | CC(=O)c1ccc(O)cc1 [Comparative Example 13, 4-hydroxy acetophenone] | 0.5 | 0.2 | 0.1 | 0.1 | 0.15
4 | O=C([O-])c1ccccc1.[Na+] [Comparative Example 14, Sodium benzoate] | 0.1 | 0.002 | 0.016 | 0.12 | 0.016
5 | OCCOc1ccccc1 [Comparative Example 15, Phenoxy EtOH] | 0.12 | 0.06 | 0.09 | 0.12 | 0.06
6 | Cc1cc(CC(C)CC(C)(C)C)n(O)c(=O)c1 (centres unmarked) [Comparative Example 18, Piroctone olamine] | 0.3 | 0.05 | 0.2 | 0.2 | 0.05
7 | COc1ccc(C(=O)O)cc1 [Comparative Example 22, Sodium anisate] | 0.1 | 0.01 | 0.05 | 0.1 | 0.05
8 | O=C([O-])CN(CCN(CC(=O)[O-])CC(=O)[O-])CC(=O)[O-].[Na+].[Na+].[Na+].[Na+] [Comparative Example 24, Tetrasodium EDTA] | 0.15 | 0.1 | 0.15 | 0.05 | 0.1
9 | Citric acid [Comparative Example 21] | 0.2 | 0.1 | 0.1 | 0.05 | 0.1
10 | Disodium EDTA [Comparative Example 23] | 0.15 | 0.1 | 0.15 | 0.05 | 0.1

Continued, values first:

Row | minimum inhibitory concentration (MIC), A. niger (A. niger) [%] | minimum inhibitory concentration (MIC), S. Aureus (S. aureus) [%] | minimum inhibitory concentration (MIC), P. Aeruginosa (P. aeruginosa) [%] | minimum inhibitory concentration (MIC), C. albicans (C. albicans) [%] | minimum inhibitory concentration (MIC), E. coli (E. coli) [%] | Compound
11 | 0.09 | 0.01 | 0.03 | 0.01 | 0.01 | CCCCCCCCCCCCNCC(O)CO (centres unmarked) [Comparative Example 1, (3-dodecylamino)propane-1,2-diol]
12 | 0.5 | 2 | 1 | 2 | 1 | CCCCC(O)CO (centres unmarked) [Comparative Example 2, Hexane-1,2-diol]
13 | 0.3 | 0.5 | 0.5 | 0.5 | 0.25 | CCCCCCC(O)CO (centres unmarked) [Comparative Example 3, Octane-1,2-diol]
14 | 0.006 | 0.025 | 0.045 | 0.011 | 0.09 | CCCCCCCCC(O)CO (centres unmarked) [Comparative Example 4, Decane-1,2-diol]
15 | 0.32 | 0.5 | 0.5 | 0.64 | 0.2 | CCCCCCOCC(O)CO (centres unmarked) [Comparative Example 5, Hexyl glycerin]
16 | 0.5 | 0.5 | 0.5 | 0.25 | 0.5 | CCCCCCCCOCC(O)CO (centres unmarked) [Comparative Example 6, Octyl glycerin]
17 | 0.5 | 0.15 | 2 | 0.5 | 0.3 | CCCCC(CC)COCC(O)CO (centres unmarked) [Comparative Example 7, Ethylhexylglycerin]
18 | 0.5 | 0.1 | 0.1 | 1 | 0.5 | CC(=O)CCc1ccc(O)cc1 [Comparative Example 11, Raspberry ketone]
19 | 0.03 | 0.4 | 0.2 | 0.03 | 0.4 | OCCCc1ccccc1 [Comparative Example 12, 3-phenyl-1-propanol]
20 | 0.02 | 0.06 | 0.12 | 0.03 | 0.06 | CCCCCCCC(=O)NO [Comparative Example 17, Caprylhydroxamic acid]
21 | 0.003 | 0.003 | 0.003 | 0.001 | 0.003 | CCCCCCCCCCCC(=O)NC(CCCN=C(N)N)C(=O)OCC (centres unmarked) [Comparative Example 19, Lauroyl arginine ethyl ester]
22 | 0.15 | 0.02 | 0.1 | 0.1 | 0.02 | CC(=O)CCC(=O)O [Comparative Example 20, Levulinic acid]
